Values after ≈ are worked out from the molar mass of the structure shown. Read-outs that look alike come from different tables or passages of the source.
What was measured:
A549 cells = assay: cell viability MTT assay, A549; format: cell-based, human; conditions: mean ± SD of two experiments, read-out: A549 antiproliferative activity IC50
Description: (§1) The antiproliferative activity of all compounds was evaluated in (i) DU145, an androgen-independent prostate cancer cell line; (ii) HeLa, a cervical cancer cell line; and (iii) A549, a lung adenocarcinoma cell line (Table 1). […] Undoubtedly, this preliminary cytotoxicity data will need further characterization, also in relation to the in vitro activity of these compounds.
(§2) Human cancer cell lines A549 (lung adenocarcinoma, ATCC CCL-185), DU-145 (androgen-independent prostate cancer, ATCC HTB-81), and HeLa (cervical carcinoma, ATCC CCL-2) were obtained from ATCC. Cells were routinely grown in minimal essential medium containing Eagle’s salts and L-glutamine supplemented with 10% heat-inactivated FBS in a humidified atmosphere of 5% CO2 at 37 °C. To assess the antiproliferative activity of the compounds, cells were seeded at a density of 2500 cells/well (HeLa) or 5000 cells/well (A549, DU-145) in 96-well plates, and cell viability was measured using the MTT assay as described previously.[39] Values are reported as the mean ± SD of two independent experiments.

human topoIIα = target: T1, human topoIIα (Homo sapiens, UniProt P11388); assay: topoII decatenation assay (Inspiralis); format: biochemical
T1 construct: purchased Inspiralis
Description: We measured the inhibitor activity of our new compounds against human topoIIα, using a topoII decatenation assay (Table 1).
The activity of topoIIα was measured using a decatenation assay (Inspiralis) following the manufacturer’s instructions. Compounds were dissolved in DMSO and used at a concentration ranging from 200 to 1 μM. Final DMSO concentration in the assay was ≤1%. Reaction mixtures were incubated for 30 min at 37 °C and terminated with STEB buffer (40% (w/v) sucrose, 100 mM Tris-HCl, pH 8, 1 mM EDTA, 0.5 mg/mL bromophenol blue). Reaction products were resolved by electrophoresis in 1% agarose gels containing SYBR Safe DNA stain (Invitrogen), scanned, and quantified using the ChemiDoc system (BioRad). IC50 values were obtained with GraphPad Prism software (version 5.03) using the band intensities of the dose–response gels. Values are reported as the mean ± SD of two independent experiments.

HeLa cells = assay: cell viability MTT assay, HeLa; format: cell-based, human; conditions: HeLa cervical cancer cells, mean ± SD of two experiments, read-out: HeLa antiproliferative activity IC50
Description: as §1, §2

DU145 cells = assay: cell viability MTT assay, DU145; format: cell-based, human; conditions: mean ± SD of two experiments, read-out: DU145 antiproliferative activity IC50
Description: as §1, §2

[1] = aqueous kinetic solubility; format: physicochemical; conditions: PBS, pH 7.4, PBS pH 7.4, target 250 µM, 2.5% DMSO, 25°C
Description: 1. In vitro m etabolic stabili ty
In vitro microsomial stability. 10mM DMSO stock solution of test compound was pre-incubated at 37 °C for 15min with mouse liver microsomes added 0.1M Tris-HCl buffer (pH 7.4). The final concentration was 4.6µM. After pre -incubation, the co-factors (NADPH, G6P, G6PDH and MgCl2 pre-dissolved in 0.1M Tris-HCl) were added to the incubation mixture and the incubation was continued at 37 °C for 1h. At each time point (0, 5, 15, 30, 60min), 30µL of incubation mixture was diluted with 200µL cold CH 3CN spiked with 200n M of internal standard, followed by centrifugation at 3500g for 15min. The supernatant was further diluted with H2O (1:1) for analysis. The concentration of test compound was quantified by LC/MS-MS on a Waters ACQUITY UPLC/M S TQD system consisting of a TQD (Triple Quadrupole Detector) Mass Spectrometer equipped with an Electrospray Ionization interface. The analyses were run on an ACQUITY UPLC BEH C18 (50x2.1mmID, particle size 1.7µm) with a VanGuard BEH C18 pre -column (5x2.1mmID, particle size 1.7µm) at 40°C, using 0.1% HCOOH in H 2O (A) and 0.1% HCOOH in CH 3CN (B) as mobile phase. Electrospray ionization (ESI) was app lied in positive mode . The percentage of test compound remaining at each time point relative to t=0 was calculated. The half -lives (t½) were determined by an one-phase decay equation using a non -linear regression of compound concentration versus time.
In vitro Plasma Stability. 10mM DMSO stock solution of test compound was diluted 50 -fold with DMSO-H2O (1:1) and incubated at 37 °C for 2 h with mouse plasma added 5% DMSO (pre-heated at 37 °C for 10 min). The final concentration was 2µM. At each time point (0, 5, 15, 30, 60, 120min), 50 µL of incubation mixture was diluted with 200µL cold CH3CN spiked with 200nM of internal standard, followed by centrifugation at 3500g for 20min. The supernatant was further diluted with H2O (1:1) for analysis. The concentration of test compound was quantified by LC/MS-MS on a Waters ACQUITY UPLC/MS TQD system consisting of a TQD (Triple Quadrupole Detector) Mass Spectrometer equipped with an Electrospray Ionization interface. The analyses were run on an ACQUITY UPLC BEH C18 (50x2.1mmID, particle size 1.7µm) with a VanGuard BEH C18 pre - column (5x2.1mmID, particle size 1.7µm) at 40°C, using 0.1% HCOOH in H2O (A) and 0.1% HCOOH in CH3CN (B) as mobile phase. Electrospray ionization (ESI) was applied in positive mode.
The response factors, calculated on the basis of the internal standard peak area, were plotted over time. When possible, response vs. time profiles were fitted with Prism (GraphPad Software, Inc., USA) to estimate compounds half-life in plasma.
2. Aqueous ki netic solu bili ty
The aqueous kinetic solubility was determined from a 10mM DMSO stock solution of test compound in Phosphate Buffered Saline (PBS) at pH 7.4. The study was performed by incubation of an aliquot of 10mM DMSO stock solution in PBS (pH 7.4) at a target concentration of 250µM resulting in a final concentration of 2.5% DMSO. The incubation was carried out under shaking at 25°C for 24h followed by centrifugation at 21.100g for 30min. The supernatant was analyzed by UPLC/MS for the quantification of dissolved compound by UV at a specific wavelength (215nm).
The analyses were performed on a Waters ACQUITY UPLC/MS SQD system consisting of a SQD (Single Quadrupole Detector) Mass Spectrometer equipped with Electrospray Ionization interface.
The analyses were run on an ACQUITY UPLC BEH C18 column (50x2.1mmID, particle size 1.7µm) with a VanGuard BEH C18 pre-column (5x2.1mmID, particle size 1.7µm), using 10mM NH4OAc in H2O at pH 5 adjusted with AcOH (A) and 10mM NH4OAc in MeCN-H2O (95:5) at pH 5 (B) as […]

[2] = Homo sapiens, A549, A549 lung adenocarcinoma cells
[3] = human topoIIα decatenation assay, mean ± SD of two independent experiments, read-out: IC50
[4] = Homo sapiens, DU-145, DU145 prostate cancer cells
[5] = topoIIα decatenation IC50 versus ARN16267

T1 sequence (P11388 whole entry): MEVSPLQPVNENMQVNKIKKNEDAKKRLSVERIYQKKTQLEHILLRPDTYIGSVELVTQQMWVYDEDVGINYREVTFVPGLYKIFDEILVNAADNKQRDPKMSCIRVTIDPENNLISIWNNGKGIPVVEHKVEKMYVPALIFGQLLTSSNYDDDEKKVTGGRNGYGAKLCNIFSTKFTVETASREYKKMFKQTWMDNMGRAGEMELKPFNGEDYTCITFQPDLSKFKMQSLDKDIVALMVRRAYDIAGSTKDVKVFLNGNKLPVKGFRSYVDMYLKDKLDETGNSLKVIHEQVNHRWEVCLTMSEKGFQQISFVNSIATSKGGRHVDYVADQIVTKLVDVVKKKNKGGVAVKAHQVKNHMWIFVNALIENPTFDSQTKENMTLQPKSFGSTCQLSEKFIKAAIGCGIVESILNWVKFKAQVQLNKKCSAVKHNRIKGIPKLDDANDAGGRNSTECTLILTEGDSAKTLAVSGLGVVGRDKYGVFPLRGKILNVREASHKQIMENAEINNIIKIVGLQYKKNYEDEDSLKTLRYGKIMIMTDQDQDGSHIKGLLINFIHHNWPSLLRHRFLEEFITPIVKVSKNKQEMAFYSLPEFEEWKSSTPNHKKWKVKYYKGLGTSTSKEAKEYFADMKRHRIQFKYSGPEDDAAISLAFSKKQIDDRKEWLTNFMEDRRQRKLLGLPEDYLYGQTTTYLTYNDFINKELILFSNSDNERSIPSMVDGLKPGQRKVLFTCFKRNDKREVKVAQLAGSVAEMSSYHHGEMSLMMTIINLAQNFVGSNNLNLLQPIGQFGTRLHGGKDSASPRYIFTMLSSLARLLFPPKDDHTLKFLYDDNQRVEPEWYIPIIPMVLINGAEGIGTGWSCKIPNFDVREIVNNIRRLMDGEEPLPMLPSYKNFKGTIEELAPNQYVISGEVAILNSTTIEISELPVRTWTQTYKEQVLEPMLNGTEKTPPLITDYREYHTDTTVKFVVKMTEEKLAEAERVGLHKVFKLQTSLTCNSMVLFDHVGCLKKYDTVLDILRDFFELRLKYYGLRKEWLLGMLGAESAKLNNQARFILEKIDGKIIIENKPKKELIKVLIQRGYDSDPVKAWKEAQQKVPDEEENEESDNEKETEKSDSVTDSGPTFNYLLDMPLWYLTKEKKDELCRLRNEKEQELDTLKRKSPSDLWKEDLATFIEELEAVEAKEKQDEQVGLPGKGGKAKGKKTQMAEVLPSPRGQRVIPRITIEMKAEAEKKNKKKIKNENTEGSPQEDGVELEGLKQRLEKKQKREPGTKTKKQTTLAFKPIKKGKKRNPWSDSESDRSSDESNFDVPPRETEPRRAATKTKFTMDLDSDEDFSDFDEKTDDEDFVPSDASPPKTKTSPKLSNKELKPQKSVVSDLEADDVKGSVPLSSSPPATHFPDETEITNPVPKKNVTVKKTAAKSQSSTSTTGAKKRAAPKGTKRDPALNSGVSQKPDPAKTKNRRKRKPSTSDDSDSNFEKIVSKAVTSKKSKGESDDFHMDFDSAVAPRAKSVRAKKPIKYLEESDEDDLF

Structure (SMILES)	IC50 (A549 cells; [2]) [µM]	IC50 (human topoIIα; [3]) [µM]	IC50 (HeLa cells; Homo sapiens, HeLa) [µM]	IC50 (DU145 cells; [4]) [µM]	solubility kinetic at 24 h [1] [µM]	IC50 (A549 cells; A549 lung adenocarcinoma cells) [µM]	IC50 (HeLa cells) [µM]	IC50 (DU145 cells; DU145 prostate cancer cells) [µM]	fold drop in activity compared to ARN16267 (human topoIIα; [5]) [fold]	fold increased activity compared to ARN16267 (human topoIIα; [5]) [fold]	IC50 (human topoIIα) [µM]
CCOc1cccc(NC(=O)c2c(O)n(-c3ccccc3)c(=S)n(-c3ccccc3)c2=O)c1 [3a, N-(3-Ethoxyphenyl)-6-hydroxy-4-oxo-1,3-diphenyl-2-thioxo-1,2,3,4-tetrahydropyrimidine-5-carboxamide]	3.6 ± 0.4	12.4 ± 3.7	5.2 ± 0.9	5.7 ± 1.4							
CC(C)Oc1cccc(NC(=O)c2c(O)n(-c3ccccc3)c(=S)n(-c3ccccc3)c2=O)c1 [3b, 6-Hydroxy-N-(3-isopropoxyphenyl)-4-oxo-1,3-diphenyl-2-thioxo-1,2,3,4-tetrahydropyrimidine-5-carboxamide]	3 ± 0.3	9.7 ± 2.6	4.2 ± 0.3	5.5 ± 0.1	34 (≈ 16.1 µg/mL)						
N#Cc1cccc(NC(=O)c2c(O)n(-c3ccccc3)c(=S)n(-c3ccccc3)c2=O)c1 [3c, N-(3-Cyanophenyl)-6-hydroxy-4-oxo-1,3-diphenyl-2-thioxo-1,2,3,4-tetrahydropyrimidine-5-carboxamide]	16.9 ± 0.3	14.4 ± 3.8	12.4 ± 1.3	14.4 ± 4.1							
O=C(Nc1cccc([N+](=O)[O-])c1)c1c(O)n(-c2ccccc2)c(=S)n(-c2ccccc2)c1=O [3d, 6-Hydroxy-N-(3-nitrophenyl)-4-oxo-1,3-diphenyl-2-thioxo-1,2,3,4-tetrahydropyrimidine-5-carboxamide]	18.5 ± 3.1	10.2 ± 4.6	11.9 ± 2.6	6.9 ± 0.3							
O=C(Nc1cccc(F)c1)c1c(O)n(-c2ccccc2)c(=S)n(-c2ccccc2)c1=O [3e, N-(3-Fluorophenyl)-6-hydroxy-4-oxo-1,3-diphenyl-2-thioxo-1,2,3,4-tetrahydropyrimidine-5-carboxamide]	4.1 ± 0.2	15.1 ± 4.2	5.6 ± 0.5	5.6 ± 0.6							
CC(F)(F)c1cccc(NC(=O)c2c(O)n(-c3ccccc3)c(=S)n(-c3ccccc3)c2=O)c1 [3h, N-(3-(1,1-Difluoroethyl)phenyl)-6-hydroxy-4-oxo-1,3-diphenyl-2-thioxo-1,2,3,4-tetrahydropyrimidine-5-carboxamide]	< 5	9.2 ± 0.2	< 5	< 5	6 (≈ 2.88 µg/mL)	3 ± 1.1	2.5 ± 0.4	2.7 ± 2.5			
COc1cc(NC(=O)c2c(O)n(-c3ccccc3)c(=S)n(-c3ccccc3)c2=O)ccc1F [3j]	4.6 ± 0.1	22.5 ± 5.8	5.3 ± 1	7.8 ± 0.6							
COc1cccc(CNC(=O)c2c(O)n(-c3ccccc3)c(=S)n(-c3ccccc3)c2=O)c1 [5d, 6-Hydroxy-N-(3-methoxybenzyl)-4-oxo-1,3-diphenyl-2-thioxo-1,2,3,4-tetrahydropyrimidine-5-carboxamide]	4.8 ± 0.4	22.5 ± 7.2	6.1 ± 1.1	7.7 ± 0.1					1.4		
COc1cccc(CCNC(=O)c2c(O)n(-c3ccccc3)c(=S)n(-c3ccccc3)c2=O)c1 [5e, 6-Hydroxy-N-(3-methoxyphenethyl)-4-oxo-1,3-diphenyl-2-thioxo-1,2,3,4-tetrahydropyrimidine-5-carboxamide]	< 5	15.8 ± 3.4	< 5	< 5	122 (≈ 57.8 µg/mL)	3.2 ± 1.2	3.4 ± 0.1	3.3 ± 2.5			
COc1cccc(/C=C/CNC(=O)c2c(O)n(-c3ccccc3)c(=S)n(-c3ccccc3)c2=O)c1 [5f, (E)-6-Hydroxy-N-(3-(3-methoxyphenyl)allyl)-4-oxo-1,3-diphenyl-2-thioxo-1,2,3,4-tetrahydropyrimidine-5-carboxamide]	4.4 ± 0.6	8.3 ± 2.3	5.5 ± 1.1	5 ± 2.9						2	
COc1cc(CNC(=O)c2c(O)n(-c3ccccc3)c(=S)n(-c3ccccc3)c2=O)cc(OC)c1O [compound 6, 6-Hydroxy-N-(4-hydroxy-3,5-dimethoxybenzyl)-4-oxo-1,3-diphenyl-2-thioxo-1,2,3,4-tetrahydropyrimidine-5-carboxamide]	14.7 ± 0.3	108 ± 10.1	19.1 ± 4.8	8.8 ± 0.3					7		> 100
COc1cc(CCNC(=O)c2c(O)n(-c3ccccc3)c(=S)n(-c3ccccc3)c2=O)cc(OC)c1O [compound 7, 6-Hydroxy-N-(4-hydroxy-3,5-dimethoxyphenethyl)-4-oxo-1,3-diphenyl-2-thioxo-1,2,3,4-tetrahydropyrimidine-5-carboxamide]	14.8 ± 1.4	74.4 ± 13.6	13.3 ± 1.7	13.9 ± 7.6							
COc1cc(/C=C/CNC(=O)c2c(O)n(-c3ccccc3)c(=S)n(-c3ccccc3)c2=O)cc(OC)c1O [compound 8, (E)-6-Hydroxy-N-(3-(4-hydroxy-3,5-dimethoxyphenyl)allyl)-4-oxo-1,3-diphenyl-2-thioxo-1,2,3,4-tetrahydropyrimidine-5-carboxamide]	9.5 ± 1.5	28 ± 4.4	9.3 ± 0.2	9.8 ± 2.1							
